In patent US20080287445A1, “Prokineticin 2 receptor antagonists” (priority 2005, published 2008):
Where “and” joins values, the source holds several entries; their conditions need not be identical. Equal values may be shown once.

Biological target: T1, GPR73 (prokineticin 1 receptor) (Homo sapiens, UniProt Q8TCW9)
T1 construct: expressed in transfected cells; host or cells: HEK 293
Assay: PK1 functional assay: Ca2+ mobilization screening for PK1 antagonists on the FLIPR
Format: cell-based
Conditions: HEK 293 GPR73 cells, multiple values = multiple testing; for Ca^2+ Mobilization % Inh @ 10 μM: 10 μM compound; for inhibition at 10 µM: HEK293, 10 μM compound, read-out: Ca^2+ Mobilization % Inh @ 10 μM; for IC50: PK1 ligand preparation at its EC50, read-out: Ca^2+ Mobilization IC50
Method: At a time of 24 h prior to running the assay, in cell culture media (DMEM containing high Glucose and L-glutamine, 10% FBS, 1% Pen/Streptomycin, 1% Sodium Pyruvate, 20 mM HEPES, Zeocin 200 mg/L), 100 μL of 1.3*10^6/ml HEK 293 GPR73 (prokineticin 1 receptor) expressing cells were plated in a 96 well poly-d-lysine coated plate (Costar), and incubated at 37 C and 5% CO2. On the day in which the assay was run, the media was removed and 200 μL of 5× Calcium Plus Dye (Molecular Devices) which was previously resuspended with 200 mL of assay buffer [HBSS w/Ca^2+ and Mg^2+ w/o phenol red, 20 mM HEPES, 0.1% BSA, 10 mL probenecid (710 mg probenecid in 5 mL of 1N NaOH, to which was then added 5 mL HBSS containing 20 mM HEPES)] was added to each well of the 96-well plate. The plate was incubated at 37 C and 5% CO2 for 30 min in dark. The plate was removed and allowed to reach RT for 15 min in the dark. The assay was then run on the FLIPR. In Brief: base line read for 1 min, compound added (25 μL) and incubated for 4 min, 15 seconds, PK1 ligand preparation added (25 μL) for a final concentration of a previously determined EC50 and fluorescence was counted for 1 min, 45 seconds. Baseline is described as the amount of relative fluorescence read when buffer alone is added to cells. Baseline was subtracted from all wells. Percent of control was calculated as follows:
(Baseline subtracted well value is divided by baseline subtracted max value)*100. Percent inhibition is 100 minus the percent of control value.
The IC50 is defined as the amount of a given compound required to inhibit 50% of the maximum signal that is generated by the concentration of PK1 preparation used in our assay. IC50 values were calculated using GraphPad Prism.

T1 sequence (Q8TCW9 whole entry, species assumed): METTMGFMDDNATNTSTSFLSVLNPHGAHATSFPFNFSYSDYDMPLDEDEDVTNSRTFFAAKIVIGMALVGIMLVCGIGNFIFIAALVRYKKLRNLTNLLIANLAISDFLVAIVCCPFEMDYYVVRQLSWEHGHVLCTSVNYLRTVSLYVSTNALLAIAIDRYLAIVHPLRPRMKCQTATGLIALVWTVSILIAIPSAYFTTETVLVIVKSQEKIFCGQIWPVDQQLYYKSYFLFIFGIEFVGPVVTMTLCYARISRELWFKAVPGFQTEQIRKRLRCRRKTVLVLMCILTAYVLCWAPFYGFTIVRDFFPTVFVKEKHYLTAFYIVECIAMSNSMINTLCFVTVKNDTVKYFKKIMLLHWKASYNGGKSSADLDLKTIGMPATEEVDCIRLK

Structure (SMILES)	Ca^2+ Mobilization % Inh @ 10 μM	inhibition at 10 µM [%]	IC50
COc1ccc(Cn2c(=O)nc(NCc3cccnc3N)n(Cc3cccc4[nH]ccc34)c2=O)cc1 [Cpd 138]	73%	61	1510 nM and 2700 nM
Cc1cc(C)c(CNc2nc(=O)n(Cc3ccc4occc4c3)c(=O)n2Cc2ccc(OC(F)F)cc2)cn1 [Cpd 178]	–	46	8650 nM
COc1ccc(Cn2c(OC(C)c3ccnc(N)c3)cc(=O)n(Cc3ccc(OC)cc3)c2=O)cc1 (centres unmarked) [Cpd 225]	–	68	3780 nM
COc1ccc(Cn2c(NCc3cnc(C)cc3C)nc(=O)n(Cc3ccccc3OC)c2=O)cc1 [Cpd 144]	–	36	> 10000 nM
CC(=O)Oc1ccc(Cn2c(=O)nc(NCc3cnc(C)cc3C)n(Cc3ccc(OC(F)F)cc3)c2=O)cc1 [Cpd 182]	–	55	8510 nM
COc1ccc(Cn2c(=O)nc(NCc3c(C)cc(C)nc3N)n(Cc3ccc4c(c3)CC(C)O4)c2=O)cc1 (centres unmarked) [Cpd 212]	99%	103	21 nM and 50 nM
Cc1cc(C)c(CNc2nc(=O)n(Cc3ccccc3C#N)c(=O)n2Cc2ccc(OC(F)F)cc2)cn1 [Cpd 180]	–	37	> 10000 nM
Cc1cc(C)c(CNc2nc(=O)n(Cc3ccc(C(N)=O)cc3)c(=O)n2Cc2ccc(OC(F)F)cc2)cn1 [Cpd 194]	–	49	6220 nM
Cc1cc(C)c(CNc2nc(=O)n(Cc3ccc(OC(F)F)cc3)c(=O)n2Cc2ccc(OC(F)F)cc2)cn1 [Cpd 163]	–	38	> 10000 nM
COC(=O)c1ccc(Cn2c(=O)nc(NCc3cnc(C)cc3C)n(Cc3ccc(OC(F)F)cc3)c2=O)cc1 [Cpd 165]	–	52	6150 nM
COc1ccc(Cn2c(NCc3cccnc3N3CCSCC3)nc(=O)n(Cc3ccc(F)cc3)c2=O)cc1 [Cpd 18]	–	58	5480 nM
COc1ccc(Cn2c(NCc3c(C)cc(C)nc3N3CCCCC3)nc(=O)n(Cc3ccc(OC)cc3)c2=O)cc1 [Cpd 213]	–	45	> 10000 nM
COc1ccc(Cn2c(NCc3cccnc3NC3CCCCC3)nc(=O)n(Cc3ccc(F)cc3)c2=O)cc1 [Cpd 31]	–	91	939 nM
Cc1cc(C)c(CNc2nc(=O)n(Cc3ccc4[nH]ccc4c3)c(=O)n2Cc2ccc(OC(F)F)cc2)cn1 [Cpd 227]	–	44	> 10000 nM
COc1ccc(Cn2c(NCc3cccnc3N)nc(=O)n(CCOc3ccc(F)cc3)c2=O)cc1 [Cpd 141, 6-[(2-Amino-pyridin-3-ylmethyl)-amino]-3-[2-(4-fluoro-phenoxy)-ethyl]-1-(4-methoxy-benzyl)-1H-[1,3,5]triazine-2,4-dione]	–	82	1130 nM
COc1ccc(Cn2c(C=Cc3ccncc3)cc(=O)n(Cc3ccc(OC)cc3)c2=O)cc1 [Cpd 184, 1,3-Bis-(4-methoxy-benzyl)-6-(2-pyridin-4-yl-vinyl)-1H-pyrimidine-2,4-dione]	–	65	2690 nM
COc1ccc(Cn2c(NCc3cccnc3N)nc(=O)n(Cc3ccc(C#N)cc3)c2=O)cc1 [Cpd 44]	–	66	2020 nM
COc1ccc(Cn2c(NCc3c(C)cc(C)nc3N)nc(=O)n(Cc3ccc(OC)cc3)c2=O)cc1 [Cpd 97, 6-[(2-Amino-4,6-dimethyl-pyridin-3-ylmethyl)-amino]-1,3-bis-(4-methoxy-benzyl)-1H-[1,3,5]triazine-2,4-dione]	96% and 98%	90	6 nM and 7 nM and 19 nM
COc1ccc(Cn2c(NCCc3ccncc3)nc(=O)n(Cc3ccc(OC)cc3)c2=O)cc1 [Cpd 215]	104% and 68%	–	500 nM and 2780 nM
COc1ccc(Cn2c(NCc3c(N)nc4c(c3-c3ccccc3)CCC4)nc(=O)n(Cc3ccc(OC)cc3)c2=O)cc1 [Cpd 246]	–	48	8320 nM
Nc1ncccc1CNc1nc(=O)n(Cc2ccc(F)cc2)c(=O)n1Cc1ccc(OC(F)(F)F)cc1 [Cpd 91]	–	59	3980 nM
COc1ccc(Cn2c(CCc3ccncc3)cc(=O)n(Cc3ccc(OC)cc3)c2=O)cc1 [Cpd 183]	–	68	2460 nM
COc1ccc(Cn2c(=O)nc(NCc3cccnc3N)n(Cc3ccncc3)c2=O)cc1 [Cpd 76]	–	67	1460 nM
Cc1cc(C)c(CNc2nc(=O)n(CCOc3ccccc3)c(=O)n2Cc2ccc(OC(F)F)cc2)cn1 [Cpd 166]	–	73	1700 nM
COc1ccc(Cn2c(=O)nc(NCc3cccnc3N)n(Cc3ccc(Cl)c(Cl)c3)c2=O)cc1 [Cpd 151]	–	60	2400 nM
COc1ccc(Cn2c(NCc3cnc(C)cc3C)nc(=O)n(Cc3ccc4c(c3)OCCO4)c2=O)cc1 [Cpd 209]	–	51	7730 nM
Cc1cc(C)c(CNc2nc(=O)n(Cc3ccc4c(c3)OCCO4)c(=O)n2Cc2ccc(OC(F)F)cc2)cn1 [Cpd 210]	–	39	> 10000 nM
Cc1cc(C)c(CNc2nc(=O)n(Cc3ccc4c(c3)nnn4C)c(=O)n2Cc2ccc3c(c2)CCO3)cn1 [Cpd 245]	–	45	> 10000 nM
Cc1ccc(Cn2c(=O)nc(NCc3cnc(C)cc3C)n(Cc3ccc(OC(F)F)cc3)c2=O)cc1 [Cpd 161]	–	53	4780 nM

Further molecules by falling IC50, results first:

Ca^2+ Mobilization % Inh @ 10 μM	inhibition at 10 µM [%]	IC50	Structure (SMILES)
–	85	922 nM	Cc1cc(C)[n+]([O-])c(N)c1CNc1nc(=O)n(Cc2ccc3c(c2)CCO3)c(=O)n1Cc1ccc2c(c1)CCO2 [Cpd 226, 6-[(2-Amino-4,6-dimethyl-1-oxy-pyridin-3-ylmethyl)-amino]-1,3-bis-(2,3-dihydro-benzofuran-5-ylmethyl)-1H-[1,3,5]triazine-2,4-dione]
–	89	868 nM	CCOc1ccc(Cn2c(=O)nc(NCc3cnc(C)cc3C)n(Cc3ccc(OC)cc3)c2=O)cc1 [Cpd 107]
–	70	830 nM	COc1ccc(Cn2c(OCc3c(C)cc(C)nc3N)cc(=O)n(Cc3ccc(OC)cc3)c2=O)cc1 [Cpd 202]
–	90	793 nM	CNc1ncccc1CNc1nc(=O)n(Cc2ccc(F)cc2)c(=O)n1Cc1ccc(OC)cc1 [Cpd 14]
–	86	788 nM	COc1ccc(Cn2c(=O)nc(NCc3cccnc3N)n(CC3CCC(OC)CC3)c2=O)cc1 (centres unmarked) [Cpd 149]
–	77	736 nM	COc1ccc(Cn2c(=O)nc(NCc3cccnc3N)n(Cc3cccc(OC(F)(F)F)c3)c2=O)cc1 [Cpd 98]
–	79	640 nM	CSc1ccc(Cn2c(=O)nc(NCc3cnc(C)cc3C)n(Cc3ccc(OC(F)F)cc3)c2=O)cc1 [Cpd 177]
–	86	503 nM	COc1ccc(Cn2c(NCc3cccc(N)n3)cc(=O)n(Cc3ccc(OC)cc3)c2=O)cc1 [Cpd 148, 6-[(6-Amino-pyridin-2-ylmethyl)-amino]-1,3-bis-(4-methoxy-benzyl)-1H-pyrimidine-2,4-dione]
–	84	451 nM	Cc1cc(C)c(CNc2nc(=O)n(Cc3ccc4snnc4c3)c(=O)n2Cc2ccc(OC(F)F)cc2)cn1 [Cpd 196]
–	92	401 nM	COc1ccc(Cn2c(NCc3cccnc3NCCSC)nc(=O)n(Cc3ccc(OC)cc3)c2=O)cc1 [Cpd 66]
–	76	387 nM	COc1ccc(Cn2c(=O)nc(NCc3cnc(C)cc3C)n(Cc3ccc4sccc4c3)c2=O)cc1 [Cpd 142]
–	–	273 nM	COc1ccc(Cn2c(=O)nc(NCc3cnc(C)cc3C)n(Cc3ccc(OC(F)F)cc3)c2=O)cc1 [Cpd 96]
–	86	250 nM	COc1ccc(Cn2c(=O)nc(NCc3cccnc3N)n(Cc3ccc(NC(C)=O)cc3)c2=O)cc1 [Cpd 37]
–	86	225 nM	COc1ccc(Cn2c(NCc3cccnc3N)nc(=O)n(Cc3ccc4occc4c3)c2=O)cc1 [Cpd 134]
–	97	207 nM	CSc1ccc(Cn2c(=O)nc(NCc3c(C)cc(C)nc3N)n(Cc3ccc(OC(F)F)cc3)c2=O)cc1 [Cpd 173]
–	95	177 nM	COc1ccc(Cn2c(NCc3cccnc3N3CCOCC3)nc(=O)n(Cc3ccc(OC)cc3)c2=O)cc1 [Cpd 20]
–	111	110 nM	COc1ccc(Cn2c(NCc3cccnc3NCCO)nc(=O)n(Cc3ccc(F)cc3)c2=O)cc1 [Cpd 29]
–	84	45 nM	COc1ccc(Cn2c(NCc3cccnc3N)cc(=O)n(Cc3ccc(OC)cc3)c2=O)cc1 [Cpd 26]
–	98	43 nM	COc1ccc(Cn2c(NCc3c(C)cc(C)nc3N)nc(=O)n(Cc3ccc4c(c3)OCO4)c2=O)cc1 [Cpd 220]
